Where two headings read alike, the source gives them in different places. Square brackets hold non-standard residues; d marks the D form. Peptide text beside a SMILES is read from it.
Experiments:
[1] = test system: C. quillermondiae clinical strains; assay: MIC, clinical yeast strains; assay type: cell-based, Candida quillermondiae; set-up: unit: μg/ml; conditions: C. quillermondiae clinical yeast strain 1
Procedure, shortened: (§1)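 MIC = lowest concentration without visual growth after 20–24 h at 37° C. Microbroth dilution, 5.0×10^5 cfu/ml, 0.125–128 μg/ml range; MH broth for bacteria, potato dextrose broth for yeasts.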

[2] = test system: C. glabrata clinical strains; assay: MIC, clinical yeast strains; assay type: cell-based, Candida glabrata; set-up: unit: µg/ml
Procedure, shortened: as §1

[3] = test system: Klebsiella pneumoniae clinical strains; assay type: cell-based; conditions: microdilution, Muller Hinton broth-cation adjusted, 0.02% BSA, 0.2% acetic acid
Procedure, shortened: as §1

[4] = test system: Escherichia coli clinical strains; assay type: cell-based; conditions: microdilution, Muller Hinton broth-cation adjusted, 0.02% BSA, 0.2% acetic acid
Procedure, shortened: as §1

[5] = test system: all the bacteria and yeasts tested; assay type: cell-based
Procedure, shortened: as §1

[6] = test system: Acinetobacter johnsonii clinical strains; assay type: cell-based; conditions: Acinetobacter johnsonii clinical strain 1; microdilution, Muller Hinton broth-cation adjusted, 0.02% BSA, 0.2% acetic acid
Procedure, shortened: as §1

[7] = test system: Pseudomonas aeruginosa clinical strains; assay type: cell-based; conditions: microdilution, Muller Hinton broth-cation adjusted, 0.02% BSA, 0.2% acetic acid
Procedure, shortened: as §1

[8] = test system: Enterobacter cloacae clinical strains; assay type: cell-based; set-up: Minimum inhibitory concentration: unit: μg/ml; conditions: microdilution, Muller Hinton broth-cation adjusted, 0.02% BSA, 0.2% acetic acid
Procedure, shortened: as §1

[9] = test system: Acinetobacter baumannii clinical strains; assay type: cell-based; set-up: Minimum inhibitory concentration: unit: μg/ml; conditions: microdilution, Muller Hinton broth-cation adjusted, 0.02% BSA, 0.2% acetic acid
Procedure, shortened: as §1

[10] = test system: Serratia marcescens clinical strains; assay type: cell-based; set-up: Minimum inhibitory concentration: unit: μg/ml; conditions: for Minimum inhibitory concentration: microdilution, Muller Hinton broth-cation adjusted, 0.02% BSA, 0.2% acetic acid
Procedure, shortened: as §1

[11] = test system: Streptococcus pneumoniae clinical strains; assay type: cell-based; set-up: Minimum inhibitory concentration: unit: μg/ml; conditions: microdilution, Muller Hinton broth-cation adjusted, 0.02% BSA, 0.2% acetic acid
Procedure, shortened: as §1

[12] = test system: Staphylococcus aureus clinical strains; assay type: cell-based; set-up: Minimum inhibitory concentration: unit: μg/ml; conditions: microdilution, Muller Hinton broth-cation adjusted, 0.02% BSA, 0.2% acetic acid
Procedure, shortened: as §1

[13] = test system: Proteus mirabilis clinical strains; assay type: cell-based; set-up: Minimum inhibitory concentration: unit: μg/ml; conditions: for Minimum inhibitory concentration: microdilution, Muller Hinton broth-cation adjusted, 0.02% BSA, 0.2% acetic acid
Procedure, shortened: as §1

[14] = test system: C. parapsilosis clinical strains; assay: MIC, clinical yeast strains; assay type: cell-based, Candida parapsilosis; set-up: unit: µg/ml
Procedure, shortened: as §1

[15] = test system: Candida albicans clinical strains; assay: MIC, clinical yeast strains; assay type: cell-based; set-up: unit: μg/ml
Procedure, shortened: as §1

In the case of `CC(C)C[C@@H](NC(=O)[C@H](N)CCCNC(=N)N)C(=O)N[C@H](CCCCN)C(=O)N[C@H](Cc1c[nH]c2ccccc12)C(=O)N[C@H](Cc1ccccc1)C(=O)N[C@H](CC(C)C)C(=O)N[C@H](CC(C)C)C(=O)N[C@H](Cc1ccccc1)C(=O)N[C@H](CCCNC(=N)N)C(=O)N[C@H](CCCCN)C(=O)N[C@H](CCCNC(=N)N)C(=O)O` [Chain308D] (H-[dR][dL][dK][dW][dF][dL][dL][dF][dR][dK][dR]-OH), the Minimum inhibitory concentration [1] is reported as 4, the Minimum inhibitory concentration ([2]; C. glabrata clinical yeast strain 1) is reported as 16 and the Minimum inhibitory concentration ([2]; C. glabrata clinical yeast strain 2) is reported as 16. For the same compound, the Minimum inhibitory concentration ([2]; C. glabrata clinical yeast strain 3) was 16, the Minimum inhibitory concentration ([2]; C. glabrata clinical yeast strain 4) was 16 and the Minimum inhibitory concentration ([3]; Klebsiella pneumoniae clinical strain 1) was 4. The Minimum inhibitory concentration ([3]; Klebsiella pneumoniae clinical strain 2) was 4, the Minimum inhibitory concentration ([3]; Klebsiella pneumoniae clinical strain 3) was 4 and the Minimum inhibitory concentration ([3]; Klebsiella pneumoniae clinical strain 4) was 4. The Minimum inhibitory concentration ([3]; Klebsiella pneumoniae clinical strain 5) was 4, the Minimum inhibitory concentration ([4]; Escherichia coli clinical strain 1) was 1 and the Minimum inhibitory concentration ([4]; Escherichia coli clinical strain 2) was 0.5. For the same compound, the Minimum inhibitory concentration ([4]; Escherichia coli clinical strain 3) was 1, the Minimum inhibitory concentration ([4]; Escherichia coli clinical strain 4) was 1 and the Minimum inhibitory concentration ([4]; Escherichia coli clinical strain 5) was 1. The “MICs against all the bacteria and yeasts tested” value [5] was 0.5 to 32 µg/mL, the Minimum inhibitory concentration [6] was 4 and the Minimum inhibitory concentration ([7]; Pseudomonas aeruginosa clinical strain 1) was 8. For the same compound, the Minimum inhibitory concentration ([7]; Pseudomonas aeruginosa clinical strain 2) was 8, the Minimum inhibitory concentration ([7]; Pseudomonas aeruginosa clinical strain 3) was 4 and the Minimum inhibitory concentration ([7]; Pseudomonas aeruginosa clinical strain 4) was 4. It also gave a Minimum inhibitory concentration ([7]; Pseudomonas aeruginosa clinical strain 5) of 4, a Minimum inhibitory concentration ([8]; Enterobacter cloacae clinical strain 1) of 2 and a Minimum inhibitory concentration ([8]; Enterobacter cloacae clinical strain 2) of 2. The Minimum inhibitory concentration ([8]; Enterobacter cloacae clinical strain 3) was 2, the Minimum inhibitory concentration ([8]; Enterobacter cloacae clinical strain 4) was 2 and the Minimum inhibitory concentration ([8]; Enterobacter cloacae clinical strain 5) was 2. The Minimum inhibitory concentration ([9]; Acinetobacter baumannii clinical strain 1) was 4, the Minimum inhibitory concentration ([9]; Acinetobacter baumannii clinical strain 2) was 4 and the Minimum inhibitory concentration ([9]; Acinetobacter baumannii clinical strain 3) was 4. For the same compound, the Minimum inhibitory concentration ([9]; Acinetobacter baumannii clinical strain 4) was 2, the Minimum inhibitory concentration ([9]; Acinetobacter baumannii clinical strain 5) was 2 and the Minimum inhibitory concentration ([10]; Serratia marcescens clinical strain 1) was 128. The Minimum inhibitory concentration ([10]; Serratia marcescens clinical strain 2) was 128, the Minimum inhibitory concentration ([10]; Serratia marcescens clinical strain 3) was 64 and the Minimum inhibitory concentration ([10]; Serratia marcescens clinical strain 4) was greater than 128. The Minimum inhibitory concentration ([10]; Serratia marcescens clinical strain 5) was 128, the “MICs against Serratia marcescens” value ([10]; clinical strains) was 64 to 128 µg/mL and the Minimum inhibitory concentration ([11]; Streptococcus pneumoniae clinical strain 1) was 8. For the same compound, the Minimum inhibitory concentration ([11]; Streptococcus pneumoniae clinical strain 2) was 4, the Minimum inhibitory concentration ([11]; Streptococcus pneumoniae clinical strain 3) was 8 and the Minimum inhibitory concentration ([11]; Streptococcus pneumoniae clinical strain 4) was 2. The Minimum inhibitory concentration ([11]; Streptococcus pneumoniae clinical strain 5) was 4, the Minimum inhibitory concentration ([12]; Staphylococcus aureus clinical strain 1) was 1 and the Minimum inhibitory concentration ([12]; Staphylococcus aureus clinical strain 2) was 2. It also gave a Minimum inhibitory concentration ([12]; Staphylococcus aureus clinical strain 3) of 1, a Minimum inhibitory concentration ([12]; Staphylococcus aureus clinical strain 4) of 2 and a Minimum inhibitory concentration ([12]; Staphylococcus aureus clinical strain 5) of 2. It also gave a Minimum inhibitory concentration ([13]; Proteus mirabilis clinical strain 1) greater than 128, a Minimum inhibitory concentration ([13]; Proteus mirabilis clinical strain 2) of 32 and a Minimum inhibitory concentration ([13]; Proteus mirabilis clinical strain 3) of 128. The Minimum inhibitory concentration ([13]; Proteus mirabilis clinical strain 4) was greater than 128, the Minimum inhibitory concentration ([13]; Proteus mirabilis clinical strain 5) was greater than 128 and the “MICs against Proteus mirabilis” value ([13]; clinical strains) was 64 to 128 µg/mL. It also gave a Minimum inhibitory concentration ([14]; C. parapsilosis clinical yeast strain 1) of 8, a Minimum inhibitory concentration ([14]; C. parapsilosis clinical yeast strain 2) of 8 and a Minimum inhibitory concentration ([14]; C. parapsilosis clinical yeast strain 3) of 8. It also gave a Minimum inhibitory concentration ([14]; C. parapsilosis clinical yeast strain 4) of 4, a Minimum inhibitory concentration ([15]; Candida albicans clinical yeast strain 1) of 16 and a Minimum inhibitory concentration ([15]; Candida albicans clinical yeast strain 2) of 16. The Minimum inhibitory concentration ([15]; Candida albicans clinical yeast strain 3) was 16, the Minimum inhibitory concentration ([15]; Candida albicans clinical yeast strain 4) was 16 and the Minimum inhibitory concentration ([15]; Candida albicans clinical yeast strain 5) was 16.

From US10457709B2, “Antimicrobial peptides, their variants and uses” (priority 2015, dated 2019)
